Measurements reported in patent US7741520B2, “Sulfonanilide analogs as selective aromatase modulators (SAMs)” (The Ohio State University Research Foundation, priority 2006, dated 2010).

Tests used:
[1] = biological target: T1, aromatase activity in JAR choriocarcinoma placental cells (Homo sapiens, UniProt P11511); assay: Tritiated water-release assay in JAR cells; format: cell-based; conditions: 24 h, 15 μM (FIG. 11), read-out: decrease of aromatase activity in JAR cells
T1 construct: JAR choriocarcinoma placental cells (which produce aromatase expression from promoter I.1 mediated by protein kinase C); host or cells: JAR
T1 sequence (P11511 1-503): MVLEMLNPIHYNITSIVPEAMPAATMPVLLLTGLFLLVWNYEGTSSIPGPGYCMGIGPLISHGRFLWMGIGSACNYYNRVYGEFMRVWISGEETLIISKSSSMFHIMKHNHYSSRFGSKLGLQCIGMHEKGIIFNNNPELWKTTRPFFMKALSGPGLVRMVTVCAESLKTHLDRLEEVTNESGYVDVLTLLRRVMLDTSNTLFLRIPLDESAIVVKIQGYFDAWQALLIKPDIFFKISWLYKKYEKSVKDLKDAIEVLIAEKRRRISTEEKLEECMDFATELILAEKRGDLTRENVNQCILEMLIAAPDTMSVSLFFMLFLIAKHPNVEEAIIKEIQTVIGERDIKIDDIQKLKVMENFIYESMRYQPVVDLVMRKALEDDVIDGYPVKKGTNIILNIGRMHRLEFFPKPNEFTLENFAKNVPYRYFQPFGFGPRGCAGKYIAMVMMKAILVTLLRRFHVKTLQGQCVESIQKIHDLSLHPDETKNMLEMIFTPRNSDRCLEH
Procedure: Cell Culture. AR and SK-BR-3 cells were obtained from ATCC (Rockville, Md.). SK-BR-3 cells were maintained in phenol red-free custom media (MEM, Earle's salts, 1.5× amino acids, 2× non-essential amino acids, L-glutamine, 1.5× vitamins, Gibco BRL) supplemented with 10% fetal bovine serum (FBS), 2 mM L-glutamine and 20 mg/L gentamycin. JAR cells were maintained in RPMI 1640 medium with 2 mM L-glutamine adjusted to contain 1.5 g/L sodium bicarbonate, 4.5 g/L glucose, 10 mM HEPES, and 1.0 mM sodium pyruvate, 90%; FBS, 10%. Fetal bovine serum was heat inactivated for 30 min in a 56° C. water bath before use. Cell cultures were grown at 37° C., in a humidified atmosphere of 5% CO2 in a Hereaus CO2 incubator. For all experiments, cells were plated in 6 well plates and grown to subconfluency. Before treatment, the media was changed to a defined one containing DMEM/F12 media (Sigma) with 1.0 mg/mL human albumin (OSU Hospital Pharmacy), 5.0 mg/L human transferin and 5.0 mg/L bovine insulin.
Tritiated water-release assay in JAR and SK-BR-3 cell lines. Measurement of aromatase enzyme activity was based on the tritium water release assay. Cells in six well plates were treated with 0.1% DMSO (control), and inhibitors at the indicated concentrations. After 24 hours, the cells were incubated 3 hours (SK-BR-3 cells) or 1 hour (JAR cells) with fresh media along with 100 nM [1β-^3H]-androst-4-ene-3,17-dione (1 μCi). Subsequently, the reaction mixture was removed, and proteins were precipitated using 10% trichloroacetic acid at 42° C. for 20 min. After a brief centrifugation, the media was extracted three times with an equal amount of chloroform to remove remaining substrate and further treated with dextran-treated charcoal. After centrifugation, a 250-μl aliquot containing the product was counted in 5 ml of liquid scintillation mixture. Results were corrected for blanks and for the cell contents of culture flasks, and results were expressed as picomoles of ^3H2O formed per hour incubation time per million live cells (pmol/h/10^6 cells). To determine the amount of cells in each flask, the cells were lysed and analyzed using the diphenylamine DNA assay adapted to a 96-well plate. IC50 sigmoidal dose-response data were analyzed with Microsoft Excel and the Graphpad Prism (Version 3.0) program.
Diphenylamine DNA Assay To determine the amount of viable cells in each flask, the cells were lysed with 0.5N NaOH aqueous solution and analyzed using the diphenylamine DNA assay adapted to a 96-well plate. DNA standards (0-30 μg) were prepared using double-stranded DNA reconstituted in PBS and added in triplicates directly to the wells. A uniform cell suspension was prepared from the 6 well plate in 300 μl 0.5N NaOH aqueous solution, and 60 μl of the unknown samples were added in triplicates to separate wells. A solution of 0.16% acetaldehyde in water was prepared and mixed at a 1:5 ratio with perchloric acid (20% vol/vol). This solution (60 μl) was added to each well along with 100 μl of a 4% diphenylamine solution in glacial acetic acid. The plates were incubated at 37° C. for 24 hours. After centrifugation, 100 μl supernatant of each well was transferred to a new 96 well plate, and the OD595 was measured using a microplater reader. The DNA concentration was determined by extrapolation to the standard curve and the amount of cells/well was calculated using the equation: 1 cell≈7 pg DNA.

SK-BR-3 cells = assay: Cell viability analysis (MTT assay) in SK-BR-3 cells; format: cell-based, human; conditions: 10 μM (FIG. 15)
Procedure: Cell Viability Analysis. The effect of nimesulides derivatives on SK-BR-3 cell viability was assessed by using the 3-(4,5-dimethylthiazol-2-yl)-2,5-diphenyl-2H-tetrazolium bromide assay in six replicates. Cells were grown in custom media in 96-well, flat-bottomed plates for 24 h, and were exposed to various concentrations of nimesulide derivatives dissolved in DMSO (final concentration ≦0.1%) in define media for different time intervals. Controls received DMSO vehicle at a concentration equal to that in drug-treated cells. The medium was removed, replaced by 200 μl of 0.5 mg/ml of 3-(4,5-dimethylthiazol-2-yl)-2,5-diphenyl-2H-tetrazolium bromide in fresh media, and cells were incubated in the CO2 incubator at 37° C. for 2 h. Supernatants were removed from the wells, and the reduced 3-(4,5-dimethylthiazol-2-yl)-2,5-diphenyl-2H-tetrazolium bromide dye was solubilized in 200 μl/well DMSO. Absorbance at 570 nm was determined on a plate reader.

Row | inhibition at 15 µM [1] [%] | SMILES | cell cytotoxicity (MTT) (SK-BR-3 cells)
1 | < 50 | CN(c1ccc([N+](=O)[O-])cc1OCc1ccc(F)cc1)S(C)(=O)=O [Compound 33c, N-methyl-N-[2-(4′-fluorobenzyloxy)-4-nitrophenyl]methanesulfonamide] | did not cause significant cell cytotoxicity
2 | < 50 | CN(c1ccc([N+](=O)[O-])cc1OCc1ccccc1)S(C)(=O)=O [Compound 26f, N-methyl-N-(2-benzyloxy-4-nitrophenyl) methanesulfonamide] | did not cause significant cell cytotoxicity
3 | < 50 | Cc1ccc(COc2cc([N+](=O)[O-])ccc2N(C)S(C)(=O)=O)cc1 [Compound 30c, N-methyl-N-[2-(4′-methylbenzyloxy)-4-nitrophenyl]methanesulfonamide] | did not cause significant cell cytotoxicity
4 | < 50 | CN(c1ccc([N+](=O)[O-])cc1OCc1ccc2ccccc2c1)S(C)(=O)=O [Compound 28c, N-methyl-N-[2-(β-naphthylmethoxy) 4-nitrophenyl]methanesulfonamide] | did not cause significant cell cytotoxicity
5 | < 50 | CN(c1ccc([N+](=O)[O-])cc1OCc1ccc([N+](=O)[O-])cc1)S(C)(=O)=O [Compound 27c, N-methyl-N-[2-(4′-nitrobenzyloxy)-4-nitrophenyl]methanesulfonamide] | did not cause significant cell cytotoxicity
6 | < 50 | CN(c1ccc([N+](=O)[O-])cc1OCc1ccccc1-c1ccccc1)S(C)(=O)=O [Compound 29c, N-methyl-N-[2-(2′-phenylbenzyloxy)-4-nitrophenyl]methanesulfonamide] | did not cause significant cell cytotoxicity
